How the values were obtained:
[1] = system: Plutella xylistella larvae; assay: Insecticidal test, leaf discs of turnip plants; assay type: in vivo; conditions: 100 g/hl; 48 hours; 26° C; cyhexatin in the form of a wettable powder
Method: Discs of leaf from turnip plants are placed in gelose in Petri dishes. In each dish, 10 Plutella xylistella larvae are placed on each disc and the dish is covered with a ventilated lid. The product to be tested is dissolved in a water/acetone 50/50 mixture and the discs are treated by spraying with this solution by using a Potter tower at a dose equivalent to 675 liters/ha. The discs are kept at 26° C. After 48 hours after the treatment, the live and dead larvae are counted and the mortality percentage is calculated.

[2] = background statement; cited from earlier work
[3] = Solubility in organic solvents; assay type: physicochemical; conditions: cyclohexanone (546 g), 316 g of 94% pure substance, 50° C., with stirring
Method: A reactor is charged, with cyclohexanone (546 g) and 94% pure tricyclohexyl-tin hydroxide (316 g) at 50° C., with stirring. […] Benzoic acid (95 g) is then added and the temperature is kept at 50° C.

Row | Molecule | mortality percentage [1] | solubility in most of the usual solvents in agrochemistry [2] | dissolution in cyclohexanone [3]
1 | tricyclohexyl-tin benzoate | at least 95% | – | –
2 | [OH][Sn]([CH]1CCCCC1)([CH]1CCCCC1)[CH]1CCCCC1 [cyhexatin, Tricyclohexyl-tin hydroxide] | < 10% | insolubility | does not dissolve

Reference: US4602945A, “Acaricidal ester of tricyclohexyl-tin hydroxide” (Rhone-Poulenc Agrochimie, priority 1983, dated 1986)
